# In article PMC9781010, “Polyphenolic Compounds Isolated from Marine Algae Attenuate the Replication of SARS-CoV-2 in the Host Cell through a Multi-Target Approach of 3CL^pro and PL^pro” (Marine Drugs, 2022):
# Where two headings read alike, the source gives them in different places.
# Key:
# 3CL^pro [1] = molecular target: 3CL^pro (UniProt P0DTD1); assay: Cell-based 3CLpro cleavage inhibition assay (dual luciferase, Vero-E6 cells); set-up: species or system SARS-CoV-2
# PL^pro (SARS-CoV-2) = PL^pro (SARS-CoV-2) (Severe acute respiratory syndrome coronavirus 2, UniProt P0DTD1); assay: biochemical; format: biochemical; conditions: for Mode of inhibition (Lineweaver–Burk plot): PL^pro, Vmax unchanged, Km increased with inhibitor concentration
# SARS-CoV-2 = assay: Cytopathic effect (CPE) reduction assay; format: cell-based; conditions: for CPE reduction / inhibitory activity against SARS-CoV-2 (in words): no concentration stated
# Description: The CPE reduction assay was performed according to the previously reported method. Briefly, the cells were seeded with 5 × 10^4 cells/well in a 96-well plate and incubated at 37 °C for 48 h. A total of 100 µL of the virus was treated in each well using DMEM media that was FBS free and 1% antibiotic to infect a 0.01 multiplicity of infection (MOI) and incubated for an additional 1 h at 37 °C. Subsequently, the infected cells were treated with samples after removing the virus and 72 h of incubation was performed, and the MTT solution was added and allowed to stand for a 4 h incubation period. The formazan crystals were dissolved and the absorbance was measured.
# PL^pro [2] = molecular target: PL^pro (UniProt P0DTD1); assay: Cell-based PLpro cleavage inhibition assay (dual luciferase, Vero-E6 cells); set-up: species or system SARS-CoV-2
# 3CL^pro (SARS-CoV-2) = 3CL^pro (SARS-CoV-2) (Severe acute respiratory syndrome coronavirus 2, UniProt P0DTD1); assay: biochemical; format: biochemical; conditions: for Mode of inhibition (Lineweaver–Burk plot): 3CL^pro, Vmax unchanged, Km increased with inhibitor concentration
# 3CL^pro [3] = molecular target: 3CL^pro (UniProt P08659+P0DTD1); assay: Cell-based 3CLpro cleavage inhibition assay (dual luciferase, Vero-E6 cells); set-up: species or system SARS-CoV-2; conditions: cell-based
# PL^pro [4] = molecular target: PL^pro (UniProt P08659+P0DTD1); assay: Cell-based PLpro cleavage inhibition assay (dual luciferase, Vero-E6 cells); set-up: species or system SARS-CoV-2; conditions: cell-based
# [5] = cell-free cleavage of PL^pro, fluorogenic substrate, read-out: IC50 Value
# [6] = at 6.25 µM, compared to Dieckol
# [7] = cell-free cleavage of 3CL^pro, fluorogenic substrate, read-out: IC50 Value
# 3CL^pro (UniProt P0DTD1), sequence (P08659 whole entry, looked up, other chains not shown): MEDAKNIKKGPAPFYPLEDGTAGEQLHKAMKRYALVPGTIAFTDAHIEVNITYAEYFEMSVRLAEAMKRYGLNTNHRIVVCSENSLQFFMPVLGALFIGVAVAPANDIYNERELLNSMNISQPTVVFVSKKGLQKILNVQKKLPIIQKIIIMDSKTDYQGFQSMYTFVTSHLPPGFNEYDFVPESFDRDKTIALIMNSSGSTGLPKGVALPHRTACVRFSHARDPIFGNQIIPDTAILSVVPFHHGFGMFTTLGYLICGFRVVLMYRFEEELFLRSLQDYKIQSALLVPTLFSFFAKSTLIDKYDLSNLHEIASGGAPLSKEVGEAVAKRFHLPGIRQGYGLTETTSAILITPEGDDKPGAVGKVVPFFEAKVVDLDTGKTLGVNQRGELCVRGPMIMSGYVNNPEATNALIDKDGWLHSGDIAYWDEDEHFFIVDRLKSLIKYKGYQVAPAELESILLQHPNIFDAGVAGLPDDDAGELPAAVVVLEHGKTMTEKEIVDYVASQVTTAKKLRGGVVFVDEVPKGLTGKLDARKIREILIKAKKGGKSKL
# PL^pro (UniProt P0DTD1), sequence (P08659 whole entry, looked up, other chains not shown): as above
# 3CL^pro (UniProt P08659+P0DTD1), sequence (P08659 whole entry, looked up, other chains not shown): as above
# PL^pro (UniProt P08659+P0DTD1), sequence (P08659 whole entry, looked up, other chains not shown): as above
SMILES,Cell-based inhibitory activity against proteolytic activity (in words) (3CL^pro [1]),IC50 (PL^pro (SARS-CoV-2)),Mode of inhibition (Lineweaver–Burk plot) (PL^pro (SARS-CoV-2)),CPE reduction / inhibitory activity against SARS-CoV-2 (in words) (SARS-CoV-2),Cell-based inhibitory activity against proteolytic activity (in words) (PL^pro [2]),IC50 (3CL^pro (SARS-CoV-2)),Mode of inhibition (Lineweaver–Burk plot) (3CL^pro (SARS-CoV-2)),IC50 (PL^pro (SARS-CoV-2); [5]),CPE reduction activity (SARS-CoV-2; [6]),CPE reduction activity (SARS-CoV-2; at 25 µM),IC50 (3CL^pro (SARS-CoV-2); [7]),Concentrations with significant and dose-dependent inhibitory activity (3CL^pro [3]),Concentrations with significant and dose-dependent inhibitory activity (PL^pro [4])
Oc1cc(O)cc(Oc2c(O)cc(O)c3c2Oc2c(O)cc(Oc4c(O)cc(Oc5c(O)cc(O)c6c5Oc5c(O)cc(O)cc5O6)cc4O)cc2O3)c1 [Dieckol],significant and dose-dependent inhibitory activities,19.74 ± 0.09 µM,competitive inhibitors,dose-dependent inhibitory activity,significant and dose-dependent inhibitory activities,5.49 ± 0.092 µM,competitive inhibitors,–,–,–,–,–,–
Oc1cc(O)cc(Oc2c(O)cc3c(c2O)Oc2cc(Oc4c(O)cc(O)cc4O)c(O)c(O)c2O3)c1 [Diphlorethohydroxycarmalol],significant and dose-dependent inhibitory activities,–,competitive inhibitors,greater activities than IPA,significant and dose-dependent inhibitory activities,–,competitive inhibitors,6.637 ± 0.056 µM,great CPE reduction activity,greatest CPE reduction activity,3.12 ± 0.066 µM,–,–
Oc1cc(O)c(Oc2cc(O)cc(O)c2-c2c(O)cc(O)cc2Oc2c(O)cc(O)cc2Oc2c(O)cc(O)c3c2Oc2c(O)cc(O)cc2O3)c(O)c1 [Eckmaxol],significant and dose-dependent inhibitory activities,–,competitive inhibitors,greater activities than IPA,significant and dose-dependent inhibitory activities,–,competitive inhibitors,19.83 ± 0.121 µM,great CPE reduction activity,–,1.89 ± 0.078 µM,–,–
Oc1cc(O)cc(Oc2cc(O)c(Oc3c(O)cc(O)cc3Oc3cc(O)c(Oc4cc(O)cc(O)c4Oc4cc(O)cc(O)c4Oc4cc(O)cc(O)c4Oc4cc(O)c(Oc5c(O)cc(O)cc5Oc5c(O)cc(Oc6c(O)cc(Oc7c(O)cc(Oc8c(O)cc(Oc9c(O)cc(Oc%10c(O)cc(Oc%11c(O)cc(O)cc%11O)cc%10O)cc9O)cc8O)cc7O)cc6O)cc5O)c(O)c4)c(O)c3)c(O)c2)c1 [Ishophloroglucin A],greatest inhibitory activity,–,competitive inhibitors,–,greatest inhibitory activity,–,competitive inhibitors,1.405 ± 0.007 µM,great CPE reduction activity,–,0.481 ± 0.031 µM,6.29 to 75.52 µM,12.59 to 75.52 µM
